Measured values taken from patent US10238714B2, “Method for forming an immune-tolerant site and method for attracting immunosuppressive cells” (KYOTO UNIVERSITY, priority 2015, dated 2019).

Key:
[1] = test system: cytotoxic T cells (CD8+ T cells); assay: Flow cytometry of immune cells from tissue where SEK-1005-containing agarose rod was embedded under the skin: cytotoxic T cells; format: in vivo, ACI rats
Description: (§1) In a polystyrene tube with an inner diameter of 4 mm, 4.5% agarose solution was poured, and the tube was then left to stand at normal temperature to allow gelation of the agarose solution. The resulting agarose gel rod was removed from the polystyrene tube, and cut into a piece having a length of 25 mm. Subsequently, the agarose gel rod was stored in a freezer at −30° C. overnight to allow freezing of water. By freeze-drying the frozen agarose rod, a porous dry agarose rod was prepared. To the dry agarose rod, 50 μl of a solution of 2 mg/ml SEK-1005 in ethanol was added dropwise to include the SEK-1005 solution in the dry agarose rod. Ethanol was then evaporated by air drying.
On the day when the agarose rod was to be embedded, streptozotocin (STZ) (60 mg/kg body weight) was administered to ACI rats to induce diabetes. To each of the left side and the right side of the back of each ACI rat, the agarose rod having a length of 25 mm and a diameter of 4 mm containing 100 μg of SEK-1005 was embedded. […] In the vicinity of each place where the agarose rod had been embedded, formation of connective tissue containing a number of blood vessels was found. This tissue was minced with scissors, and then homogenized, followed by collecting cells from the tissue. The cells were subjected to purification by Percoll density gradient centrifugation to obtain immune cells, and the obtained immune cells were analyzed using a flow cytometer.
In normal subcutaneous tissues, the ratio is about 30%, and, when a foreign substance is embedded, the ratio increases to not less than 50% in most cases. The action of SEK-1005 suppressed such an increase.

[2] = test system: regulatory T cells (CD4+Foxp3+ cells); assay: Flow cytometry of immune cells from tissue where SEK-1005-containing agarose rod was embedded under the skin: regulatory T cells; format: in vivo, ACI rats; conditions: for ratio of Foxp3+ cells among CD4+ cells: STZ-diabetic ACI rats
Description: as §1
(§2) On the day when the agarose rod was to be embedded, streptozotocin (STZ) (60 mg/kg body weight) was administered to ACI rats to induce diabetes. To each of the left side and the right side of the back of each ACI rat, the agarose rod having a length of 25 mm and a diameter of 4 mm containing 100 μg of SEK-1005 was embedded. On Day 10 after the embedding, the agarose rod was removed. In the vicinity of each place where the agarose rod had been embedded, formation of connective tissue containing a number of blood vessels was found. This tissue was minced with scissors, and then homogenized, followed by collecting cells from the tissue. The cells were subjected to purification by Percoll density gradient centrifugation to obtain immune cells, and the obtained immune cells were analyzed using a flow cytometer.
The ratio of Foxp3^+ cells among CD4^+ cells was 18.3% on Day 2, 20.8% on Day 7, 23.3% on Day 10, and 27.3% on Day 14 after the SEK-1005-containing agarose rod was embedded under the skin.

TGF-β1 = TGF-β1 concentration in the exudate at the site of the SEK-1005-containing agarose rod; format: in vivo, ACI rats
Description: as §1, §2
The TGF-β1 concentration in the exudate was measured. The TGF-β1 concentration was 0.7±0.1 ng/ml until Day 7 after the SEK-1005-containing agarose rod was embedded. […] This was about 3 times the concentration in a treated group in which an SEK-1005-free agarose rod was embedded.

[3] = Blood glucose level after transplantation of pancreatic islets into the site where the SEK-1005-containing agarose rod was embedded; format: in vivo; conditions: then removed, 1,500 F344 rat islets per cavity, STZ-diabetic ACI rats
Description: On the day when the SEK-1005-containing agarose rod was to be embedded, streptozotocin (STZ) (60 mg/kg body weight) was administered to ACI rats to induce diabetes. Under the skin of each of the left side and the right side of the back of each ACI rat, the agarose rod prepared in the same way as Example 1 was embedded. On Day 2 or Day 10 after the embedding, the agarose rod was removed, and 1,500 pieces of pancreatic islets separated from the pancreases of F344 rats were transplanted to each of the two dorsal subcutaneous cavities formed. After the transplantation, the blood glucose levels of the rats were measured. […] When SEK-1005-free agarose rod was embedded in the STZ-administered rats for 10 days and after removal of the agarose-rod, pancreatic islets were transplanted to the embedded site, the blood glucose levels of the diabetic rats were not decreased.

[4] = test system: chemokine/cytokine-associated genes; assay: Gene expression analysis of tissue in vicinity of embedded SEK-1005-containing agarose rod; format: in vivo, rat; conditions: Day 7 after embedding, versus SEK-1005-free agarose rod group
Description: (§3) On Day 7 after embedding of the SEK-1005-containing agarose rod by the same operation as in Example 1, the tissue in the vicinity of the place where the rod was embedded was collected. The collected tissue was immediately impregnated with RNA later solution (Life Technologies) to inhibit RNA degradation. RNA in the tissue was extracted by the column method. The extracted RNA was amplified by the Express kit method (Affymetrix) and biotin-labeled, followed by hybridization with a Rat Genome 230 2.0 array (Affymetrix). Signals were read by a Hewlett-Packard GeneArray Scanner G2500A. By such a process, gene expression analysis was carried out for three tissue samples obtained from the vicinities of SEK-1005-containing agarose rods and three tissue samples obtained from the vicinities of control SEK-1005-free agarose rods. The obtained fluorescence intensities were standardized and normalized, and then subjected to statistical analysis. The standardized and normalized gene expression level was statistically compared between the SEK-1005-containing agarose rod group and the control SEK-1005-free agarose rod group. Genes showing increased expression in the SEK-1005-containing agarose rod group were plotted such that their values along the X-axis became positive. Log 2 conversion was carried out in terms of the X-axis. […]

CD8+ T cells = assay: Treg suppression assay with CD4+CD25+ cells collected from tissue near the SEK-1005-containing agarose rod; format: cell-based, ACI rats; conditions: Group 2: CFSE-stained CD8+ T cells, 1 μg/mL anti-CD3 antibody plus 2.5×10^4 CD4+CD25+ cells from Day 10 rod tissue, Day 4.5; Group 1 without these cells 42.4%
Description: On Day 10 after embedding of the SEK-1005-containing agarose rod by the same operation as in Example 1, the tissue in the vicinity of the place where the rod was embedded was collected, and then homogenized, followed by collecting cells from the tissue. The cells were subjected to purification by Percoll density gradient centrifugation to obtain immune cells, and CD4^+CD25^+ cells (a fraction containing a large number of tissue-infiltrating regulatory T cells) were collected using MACS magnetic beads.
CD8^+ T cells were separately prepared from ACI rats, and the cells were then stained with a fluorescent dye, carboxyfluorescein succinimidyl ester (CFSE). On a 96-well plate, 2.5×10^4 CD8^+ T cells and 5×10^4 antigen-presenting cells were plated in each well, and the cell growth was quantitatively evaluated using a flow cytometer on Day 4.5 after the plating. The wells were divided into three groups. In Group 1, 1 μg/mL anti-CD3 antibody was added to stimulate the growth. In Group 2, 1 μg/mL anti-CD3 antibody as well as 2.5×10^4 CD4^+CD25^+ cells were added. In Group 3, no anti-CD3 antibody was added.
One round of cell division of T cells stained with a fluorescent dye results in a decrease in the fluorescence intensity to half. Another division results in a decrease in the fluorescent intensity to one fourth of the original intensity. […]

[5] = test system: regulatory T cells (CD4+Foxp3+ cells); assay: Flow cytometry of immune cells at site where bFGF-containing agarose rod was embedded: regulatory T cells; format: in vivo, ACI rats; conditions: for ratio of Foxp3+ cells among CD4+ cells: STZ-diabetic ACI rats
Description: as §1, with “mm, 4.5” for “mm, 4.5%”, “rod, 100” for “rod, 50”, “of 500 μg/ml bFGF” for “of a”, “solution (FIBLAST Spray 500, Kaken Pharmaceutical Co., Ltd.)” for “solution of 2 mg/ml SEK-1005 in ethanol”, “the bFGF” for “the SEK-1005”, “rod.” for “rod. Ethanol was then evaporated by air drying.”
(§4) On the day when the agarose rod was to be embedded, streptozotocin (STZ) (60 mg/kg body weight) was administered to ACI rats to induce diabetes. To each of the left side and the right side of the back of each ACI rat, the agarose rod having a length of 25 mm and a diameter of 4 mm containing 50 μg of bFGF was embedded. On Day 7 after the embedding, the agarose rod was pulled out. In the vicinity of each place where the agarose rod had been embedded, formation of connective tissue containing a number of blood vessels was found. This tissue was collected, and then minced with scissors, followed by homogenization. The cells were then subjected to purification by Percoll density gradient centrifugation to obtain immune cells, and the obtained immune cells were analyzed using a flow cytometer.
The ratio of Foxp3^+ cells among CD4^+ cells was 25.4% on Day 2, 24.4% on Day 7, 24.4% on Day 10, and 26.4% on Day 14 after the bFGF-containing agarose rod was embedded under the skin.

[6] = test system: chemokine/cytokine-associated genes; assay: Gene expression analysis of tissue in vicinity of embedded bFGF-containing agarose rod; format: in vivo, rat; conditions: Day 7 after embedding, versus bFGF-free agarose rod group
Description: as §3, with “bFGF-containing” for “SEK-1005-containing”, “4,” for “1,”, “bFGF-free” for “SEK-1005-free”

[7] = test system: myeloid-derived suppressor cells (MDSCs); assay: Flow cytometry for CD11b/c and granulocytes at site where bFGF-containing agarose rod was embedded; format: in vivo, ACI rats; conditions: group in which the agarose rod-bFGF was embedded
Description: as §1, with “mm, 4.5” for “mm, 4.5%”, “rod, 100” for “rod, 50”, “of 500 μg/ml bFGF” for “of a”, “solution (FIBLAST Spray 500, Kaken Pharmaceutical Co., Ltd.)” for “solution of 2 mg/ml SEK-1005 in ethanol”, “the bFGF” for “the SEK-1005”, “rod.” for “rod. Ethanol was then evaporated by air drying.”
as §4, with “This tissue was collected, and then minced with scissors, followed by homogenization.” left out, “cytometer. […]” for “cytometer.”

CC(C)CC1CCC(O)(C(C)(O)C(=O)NC2C(=O)N3NCCCC3C(=O)N(O)C(C)C(=O)N(C)C(Cc3ccccc3)C(=O)N3NCCCC3C(=O)NC(CO)C(=O)OC2C(C)C)OC1C (stereo not drawn) [SEK-1005, Ser, 3-hydroxy-N-[2-hydroxy-1-oxo-2-tetrahydro-2-hydroxy-6-methyl-5-(2-methylpropyl)-2H-pyran-2-yl-propyl]-Leu-Pip(hexahydro-3-pyridazinecarbonyl)-N-hydroxy-Ala-N-methyl-Phe-Pip-rho-lactone]
ratio of cytotoxic T cells (CD8+ T cells) to CD4+ cells among CD3+ cells ([1]; Day 2 after SEK-1005-containing agarose rod embedded under the skin): 36.1% | ratio of cytotoxic T cells (CD8+ T cells) to CD4+ cells among CD3+ cells ([1]; Day 7 after SEK-1005-containing agarose rod embedded under the skin): 33.7% | ratio of cytotoxic T cells (CD8+ T cells) to CD4+ cells among CD3+ cells ([1]; Day 10 after SEK-1005-containing agarose rod embedded under the skin): 25.5% | ratio of cytotoxic T cells (CD8+ T cells) to CD4+ cells among CD3+ cells ([1]; Day 14 after SEK-1005-containing agarose rod embedded under the skin): 23.9% | ratio of Foxp3+ cells among CD4+ cells ([2]; Day 2 after rod with 100 μg SEK-1005 embedded under the skin): 18.3% | ratio of Foxp3+ cells among CD4+ cells ([2]; Day 7 after rod with 100 μg SEK-1005 embedded under the skin): 20.8% | ratio of Foxp3+ cells among CD4+ cells ([2]; Day 10 after rod with 100 μg SEK-1005 embedded under the skin): 23.3% | ratio of Foxp3+ cells among CD4+ cells ([2]; Day 14 after rod with 100 μg SEK-1005 embedded under the skin): 27.3% | increase of ratio of regulatory T cells (CD4+Foxp3+ cells) ([2]; versus about 10% in normal subcutaneous tissues): 2- to 3 fold | TGF-β1 concentration in the exudate (TGF-β1; Day 10 after the embedding): 2.0 ± 1.0 ng/mL | TGF-β1 concentration relative to SEK-1005-free agarose rod group (TGF-β1; Day 10 after the embedding): about 3 times | TGF-β1 concentration in the exudate (TGF-β1; until Day 7 after the rod was embedded): 0.7 ± 0.1 ng/mL | blood glucose levels after transplantation of pancreatic islets ([3]; rod embedded for ten days): normalized | blood glucose levels after transplantation of pancreatic islets ([3]; rod embedded for two days): > 400 mg/dL | expression of genes associated with migration/induction of regulatory T cells among chemokine/cytokine-associated genes [4]: significant increase | expression of genes not associated with migration/induction of regulatory T cells among chemokine/cytokine-associated genes [4]: significant decrease | ratio of cells exhibiting decreased fluorescence intensity due to cell division (CD8+ T cells): 13.4%

bFGF: basic fibroblast growth factor; bFGF solution (FIBLAST Spray 500, Kaken Pharmaceutical Co., Ltd.)
ratio of Foxp3+ cells among CD4+ cells ([5]; Day 2 after rod with 50 μg bFGF embedded under the skin): 25.4% | ratio of Foxp3+ cells among CD4+ cells ([5]; Day 7 after rod with 50 μg bFGF embedded under the skin): 24.4% | ratio of Foxp3+ cells among CD4+ cells ([5]; Day 10 after rod with 50 μg bFGF embedded under the skin): 24.4% | ratio of Foxp3+ cells among CD4+ cells ([5]; Day 14 after rod with 50 μg bFGF embedded under the skin): 26.4% | increase of ratio of regulatory T cells ([5]; versus about 10% in normal subcutaneous tissues and bFGF-free agarose rod-embedded rats): 2- to 3 fold | expression of genes associated with migration/induction of regulatory T cells among chemokine/cytokine-associated genes [6]: significant increase | expression of genes not associated with migration/induction of regulatory T cells among chemokine/cytokine-associated genes [6]: significant decrease | granulocyte marker [7]: increase | myeloid-derived suppressor cells (MDSCs) [7]: induced
